The text below walks through data of paper PMC8173106, “Modulating Enzyme Function via Dynamic Allostery within Biliverdin Reductase B” (Frontiers in Molecular Biosciences, 2021).

The test concerns the target T1, human BLVRB (biliverdin reductase B) (Homo sapiens, UniProt P30043).
T1 construct: full length, 206 residues; codon-optimised, pET21b (T164S in pJ401k); N-terminal 6xHis tag removed with thrombin
T1 sequence (P30043 1-206): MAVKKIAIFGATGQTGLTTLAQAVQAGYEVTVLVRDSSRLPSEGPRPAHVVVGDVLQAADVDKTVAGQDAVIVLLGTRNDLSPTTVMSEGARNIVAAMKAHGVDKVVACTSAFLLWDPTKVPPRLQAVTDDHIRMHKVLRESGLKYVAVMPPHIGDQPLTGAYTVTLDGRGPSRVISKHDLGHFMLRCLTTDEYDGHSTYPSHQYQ
The experiment in a line: isothermal titration calorimetry. In kind it is binding. The settings on record: 50 mM bis-tris, pH 6.5, 50 mM NaCl, 20 C; apo enzyme.

For `NC(=O)c1ccc[n+]([C@@H]2O[C@H](COP(=O)(O)OP(=O)(O)OC[C@H]3O[C@@H](n4cnc5c(N)ncnc54)[C@H](OP(=O)(O)O)[C@@H]3O)[C@@H](O)[C@H]2O)c1` [NADP^+], the KD entry is recorded as “screened for their dissociation constants (KD) to NADP^+ using ITC”.
